Holding throughout (test): MIC by broth microdilution (CLSI)
Common to all, as to assay type: cell-based
A general note: Broth dilution looks for growth in wells or tubes with falling amounts of substance.

In one test the test system is E. coli HAV#038, ΔTolC. The following applies: Escherichia coli, 24 h, read-out: MIC E. coli HAV#038, ΔTolC. The essentials:
(§1)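 MIC read as the lowest compound level with no visible growth at 24 h (μg/mL). CLSI microdilution; CaMHB (Chelex 100-treated for P. aeruginosa); 5×10^5 CFU/mL; range 64-0.06 μg/mL; DMSO 2.5% final.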

The test system of another test is E. coli HAV#040, LptD. Particulars: Escherichia coli, 24 h, read-out: MIC E. coli HAV#040, LptD. Put shortly:
as §1

The subject of test [1] is S. pyogenes HAV#004, ATCC 19615. Particulars: Streptococcus pyogenes, ATCC19615, CaMHB, 24 h incubation. Put shortly: as §1
Test [2] relates to S. aureus ATCC 29213 (HAV#001). The following applies: Staphylococcus aureus, ATCC29213, 24 h, HAV#001, ATCC 29213; CaMHB, 24 h incubation; read-out: MIC S. aureus ATCC 29213. Put shortly: as §1
Test [3] relates to E. faecium HAV#318, VRE; clinical. Particulars: Enterococcus faecium, CaMHB, 24 h incubation, read-out: MIC E. faecium HAV#318, VRE. Put shortly:
as §1

In test [4] the test system is E. coli ATCC 25922 (HAV#006). The following applies: Escherichia coli, ATCC25922, 24 h, HAV#006, ATCC 25922; CaMHB, 24 h incubation; read-out: MIC E. coli ATCC 25922. The essentials:
as §1

A further test has as its system S. aureus HAV#016, MRSA. Particulars: Staphylococcus aureus, CaMHB, 24 h incubation. Put shortly:
as §1

The test system of test [5] is K. oxytoca HAV#450; Clinical. The following applies: Klebsiella oxytoca, CaMHB, 24 h incubation, read-out: MIC K. oxytoca HAV#450. The essentials: as §1
In test [6] the test system is S. aureus HAV#202, ATCC 700699. The following applies: Staphylococcus aureus, ATCC700699, CaMHB, 24 h incubation. Put shortly:
as §1

Test [7] has as its system S. pneumoniae HAV#003, ATCC 49619. The following applies: Streptococcus pneumoniae, ATCC49619, CaMHB, 24 h incubation. Put shortly:
as §1

Structures can show the parent of a compound that is named as a salt. Bounds are passed on as bounds.

As a reminder, the MIC is the smallest concentration in the dilution series that meets the test's criterion for growth inhibition. As to `CC(C)C[C@@H]1CCO[C@@H]2[C@H](CN[C@@H]2C(=O)N[C@@H]2CCCCCS[C@H]3O[C@H]2[C@H](O)[C@H](O)[C@H]3O)C1` [FSA1503058, (4S,5aS,8S,8aR)-4-isobutyl-N-((1R,8R,9R,10R,11S,12R)-10,11,12-trihydroxy-13-oxa-2-thiabicyclo[7.3.1]tridecan-8-yl) octahydro-2H-oxepino[2,3-c]pyrrole-8-carboxamide formate salt], the MIC with E. coli HAV#038, ΔTolC is 1 µg/mL; with E. coli HAV#040, LptD it was 4 µg/mL; in test [1], at most 0.03 µg/mL; in [2], 0.125 µg/mL; in [3] it was 2 µg/mL; in [4] it was 16 µg/mL. Moreover, the MIC in the test on S. aureus HAV#016, MRSA was 0.125 µg/mL; in test [5], 32 µg/mL; in test [6], 4 µg/mL; in test [7] it was at most 0.03 µg/mL.

The values above are taken from US20250270246A1, “LINCOSAMIDES AND USES THEREOF” (President and Fellows of Harvard College, priority 2022, published 2025).
